Measurements: patent publication US4410629A, “ML-236B Derivatives and their preparation” (Sankyo Company Limited, priority 1980, dated 1983)
Where a name gives a salt, the structure may show the parent alone.

Key:
cholesterol biosynthesis = assay: Inhibition of cholesterol biosynthesis (method of J. Biol. Chem. 234, 2835 (1959)); format: biochemical
[1] = system: 3-hydroxy-3-methylglutaryl-coenzyme A reductase; details: competing with the rate-limiting enzyme HMG-CoA reductase; J. Antibiotics 29, 1346 (1976); cited from earlier work
serum cholesterol levels = details: animals; J. Antibiotics 29, 1346 (1976); cited from earlier work

CC[C@H](C)C(=O)O[C@H]1CC=CC2=C[C@@H](O)[C@H](C)[C@H](CC[C@@H](O)C[C@@H](O)CC(=O)OC)[C@H]21 [IsoM-4' methyl ester]
concentration required to inhibit cholesterol biosynthesis by 50% (cholesterol biosynthesis): 0.007 µg/mL

CC[C@H](C)C(=O)O[C@H]1C[C@H](O)C=C2C=C[C@H](C)[C@H](CC[C@@H](O)C[C@@H](O)CC(=O)OC)[C@H]21 [M-4 methyl ester]
concentration required to inhibit cholesterol biosynthesis by 50% (cholesterol biosynthesis): 0.001 µg/mL

CCC(C)C(=O)OC1CCC=C2C=CC(C)C(CCC3CC(O)CC(=O)O3)C21 (centres unmarked) [ML-236B]
inhibition of the biosynthesis of cholesterol by enzymes or cultured cells [1]: inhibit the biosynthesis of cholesterol | concentration required to inhibit cholesterol biosynthesis by 50% (cholesterol biosynthesis): 0.01 µg/mL | serum cholesterol levels (serum cholesterol levels): significantly reduces serum cholesterol levels of animals

CC[C@H](C)C(=O)O[C@H]1CC=CC2=C[C@@H](O)[C@H](C)[C@H](CC[C@@H]3C[C@@H](O)CC(=O)O3)[C@H]21 [IsoM-4' lactone]
concentration required to inhibit cholesterol biosynthesis by 50% (cholesterol biosynthesis): 0.013 µg/mL

CC[C@H](C)C(=O)O[C@H]1C[C@@H](O)C=C2C=C[C@H](C)[C@H](CC[C@@H](O)C[C@@H](O)CC(=O)O)[C@H]21 [M-4' sodium salt]
concentration required to inhibit cholesterol biosynthesis by 50% (cholesterol biosynthesis): 0.00049 µg/mL

CC[C@H](C)C(=O)O[C@H]1C[C@H](O)C=C2C=C[C@H](C)[C@H](CC[C@@H](O)C[C@@H](O)CC(=O)O)[C@H]21 [M-4 sodium salt]
concentration required to inhibit cholesterol biosynthesis by 50% (cholesterol biosynthesis): 0.0008 µg/mL
